Columns and labels:
[1] = tested on: Human ovarian carcinoma IGROV-1; assay: Cytotoxicity test (sulphorodamine B), IGROV-1; assay type: cell-based; conditions: 24 h incubation, survival 48 h after removal
Description: (§1) Different cell lines deriving from solid tumors were also used. • 1. Human prostate carcinoma PC3 and DU145. These cell lines were maintained in RPMI 1640 medium containing 10% FCS, 1% sodium pyruvate and 1% glutamine; • 2. Human colon adenocarcinoma LoVo. This cell line was maintained in HAM's F-12 medium, containing 10% FCS and 1% glutamine. • 3. Human ovarian carcinoma such as A2780 and A2780/Dx, sensitive and resistant to drugs, respectively (doxorubicin, taxol, etoposide, vincristine); IGROV-1 and IGROV-1/Pt, sensitive and resistant to platinum-based chemotherapy, respectively, were maintained in RPMI 1640 medium containing 10% FCS, 1% sodium pyruvate and 1% glutamine; • 4. Human melanoma MeWo and MeS 2.21, glioblastoma GBM, no small cell lung carcinomas A431, NCI—H460, osteosarcomas SAOS and U2OS were maintained in RPMI 1640 medium containing 10% FCS, 1% sodium pyruvate and 1% glutamine.
(§2) The cytotoxicity tests were carried out using NB4 or HL-60 cells in suspension (10000/well). The cells were seeded in a volume of 250 μl in 96 well plates and incubated for 24 hours at 37° C. […] The optical density was measured using a Multiskan spectrophotometer at 540 nm. […]
(§3) Cell survival was determined by incubation with ST1926 for 24 hours, 48 hours after the removal of the compound. […]

[2] = tested on: Human melanoma MeS 2.21; assay: Cytotoxicity test (sulphorodamine B), MeS 2.21; assay type: cell-based; conditions: 24 h incubation, survival 48 h after removal
Description: as §1, §2, §3

[3] = tested on: osteosarcoma SAOS; assay: Cytotoxicity test (sulphorodamine B), SAOS; assay type: cell-based; conditions: Homo sapiens, 24 h incubation, survival 48 h after removal
Description: as §1, §2, §3

[4] = tested on: osteosarcoma U2OS; assay: Cytotoxicity test (sulphorodamine B), U2OS; assay type: cell-based; conditions: Homo sapiens, 24 h incubation, survival 48 h after removal
Description: as §1, §2, §3

[5] = tested on: Murine pulmonary adenocarcinoma Madison 109 (M109); assay: Antitumoral activity in murine pulmonary carcinoma model M109; assay type: in vivo, BALB/c mouse; conditions: qdx5x3w; for TVI %: 2 days after final administration
Experimental: (§4) Murine pulmonary adenocarcinoma Madison 109 cells (M109) were maintained by s.c. passage of tumor fragments. The day of inoculation, the cell suspension was injected i.m. in the rear left limb of a 20 g male BALB/c mouse at a density of 3×10^5 cells/mouse. 3LL murine Lewis lung carcinoma was routinely maintained by i.m. passages (every 10-14 days) of 1×10^5 cells/mouse in C57BL/6J mice. For antitumor activity experiments, tumors were excised from donor mice and after mechanical desegregation and enzymatic digestion tumor cell viability was assessed by the trypan blue dye exclusion test. Then, 1×10^5 cells/100 μl/mouse were injected i.m. into the right hind leg muscle of C57BL/6J mice.
(§5) Tumor dimension measurements were performed using a digital calliper (Vernier Caliper) from the day in which the mass became measurable, twice weekly. The tumor mass was assessed from the size of the two principal dimensions (length and breadth), expressed in mm, applying the formula (length×breadth^2)/2 that is, the tumor volume in mm3. For every experimental group the percentage of inhibition of tumor volume (TVI %) was calculated, with respect to that of the control that is (100−(T/C %). TVI was evaluated 2 days after the final administration of ST1926.
(§6) The mean survival time (MST) was also measured and the increase in mean life-span expressed as ILS % (increase of life span) calculated as (MSTT/MSTC)×100−100.
The comparison between the values of TVI and of survival time, obtained for each group were performed with the non parametric Mann Whitney test for non paired data, using the Instat software from GraphPad inc.
The ST1926 solution was prepared immediately before use and solubilised in cremophor:ethanol 1:1 and subsequently diluted 1:4 in buffered saline solution. The treatments of the animals were carried out in a volume of 10 ml/kg. The treatment scheme for ST1926 at different doses was for 5 consecutive days (qdx5), beginning 1 day after the inoculation with the tumoral cells and was repeated for 3 cycles.
(§7) The mice (8 for each group) were weighed prior to each treatment, firstly, so as to be able to administer the correct quantity of substance, based on the eventual variations in weight observed throughout the period of drug administration, and also to be able to register the maximum weight loss throughout the treatment (BWL % max).

[6] = tested on: 3LL murine Lewis lung carcinoma; assay: Antitumoral activity in murine Lewis lung carcinoma model 3LL; assay type: in vivo, C57BL/6J mice; conditions: 10 mg/kg po, qdx5x3w
Experimental: as §4, §5, §6
The comparison between the values of TVI and of survival time, obtained for each group were performed with the non parametric Mann Whitney test for non paired data, using the Instat software from GraphPad inc. […]
as §7

O=C(O)/C=C/c1ccc(-c2ccc(O)c(C34CC5CC(CC(C5)C3)C4)c2)cc1 [ST1926, E-4-(3-(1-adamantyl)-4-hydroxyphenyl)cinnamic acid]
IC50 [1]: 230 nM | IC50 [2]: 230 nM | IC50 [3]: 250 nM | IC50 [4]: 260 nM | BWL % Max ([5]; M109, 10 mg/kg i.p.): 9% | ILS % ([5]; M109, 10 mg/kg i.p.): 27% | MST (range days) ([5]; M109, 10 mg/kg i.p.): *28 (25-35) days | TVI % ([5]; M109, 10 mg/kg i.p.): 18% | BWL % Max ([5]; M109, 10 mg/kg p.o.): 10% | ILS % ([5]; M109, 10 mg/kg p.o.): 59% | MST (range days) ([5]; M109, 10 mg/kg p.o.): **35 (27-42) days | TVI % ([5]; M109, 10 mg/kg p.o.): *49% | BWL % Max ([5]; M109, 15 mg/kg i.p.): 10% | ILS % ([5]; M109, 15 mg/kg i.p.): 64% | MST (range days) ([5]; M109, 15 mg/kg i.p.): **36 (30-42) days | TVI % ([5]; M109, 15 mg/kg i.p.): *46% | BWL % Max [6]: 7% | ILS % [6]: 52% | MST (range days) [6]: *32 (24-42) days
